In patent US8846671B2, “Heterocyclic alkynyl benzene compounds and medical compositions and uses thereof” (Guangzhou Institute of Biomedicine and Health, Chinese …, priority 2010, dated 2014):
“And” between values parts separate entries of the source, which are not always exact repeats. Equal values may be shown once. Where a name gives a salt, the structure may show the parent alone. Read-outs that look alike come from different tables or passages of the source.

Tests used:
[1] = test system: MEG-01 (Human megakaryoblastic leukaemia cell line); assay: tumor cell proliferation, MTT or CCK8 assay, 72 h incubation; format: cell-based; settings: MEG-01, 72 h, read-out: IC50 on tumor cell proliferation, MEG-01
Method: (§1) The heterocyclic alkynyl benzene compounds at different concentrations (1×10^−10˜1×10^−5M) were incubated for 72 hours individually applied to 6 cell lines K562 (human CML cell line), MOLT-4 (human ALL cell line), U937 (human CML cell line), MEG-01 (human CML cell line), L78 (human lung cancer cell line), Ba/F3-T315I (mice Pro-B cells transformed with Bcr-AblT315I and STI57′-resistant cell line). After incubation for 72 hrs, cell proliferation was then determined by MTT assay or CCK8 assay, and 4 hr incubation is further conducted, the absorbance at 570 nm (CCK8, 450 nm, 650 nm) was measured using enzyme Microplate Reader. […] Based on the inhibition potency of the heterocyclic alkynyl benzene compounds on the cell proliferation, IC50 values were calculated and summarized in the Table 1 and Table 2 (The compounds used were synthesized by Examples 1-40, and the compounds are marked with Drug No. series in Table 1).

[2] = test system: K562 (human chronic myelogenous leukemia cell line); assay: as above; format: cell-based; settings: K562, 72 h, read-out: IC50 on tumor cell proliferation, K562
Method: as §1

[3] = test system: MOLT-4 (Human acute lymphoblastic leukemia cell line); assay: as above; format: cell-based; settings: MOLT-4, 72 h, read-out: IC50 on tumor cell proliferation, MOLT-4
Method: as §1

[4] = biological target: BAF3-T315I cells (Ba/F3 cell line stably expressing BCR/ABL T315I) (Homo sapiens, UniProt P00519, T315I, cells depend on it); assay: as above; format: cell-based, mice
Method: The heterocyclic alkynyl benzene compounds at different concentrations (1×10^−10˜1×10^−5M) were incubated for 72 hours individually applied to 6 cell lines K562 (human CML cell line), MOLT-4 (human ALL cell line), U937 (human CML cell line), MEG-01 (human CML cell line), L78 (human lung cancer cell line), Ba/F3-T315I (mice Pro-B cells transformed with Bcr-AblT315I and STI57′-resistant cell line). After incubation for 72 hrs, cell proliferation was then determined by MTT assay or CCK8 assay, and 4 hr incubation is further conducted, the absorbance at 570 nm (CCK8, 450 nm, 650 nm) was measured using enzyme Microplate Reader.

[5] = test system: K562R cells (imatinib-resistant cell line); assay: as above; format: cell-based; settings: Homo sapiens, K-562R, read-out: IC50 on tumor cell proliferation, K562R cells
U937 Cell line = assay: as above; format: cell-based; settings: Homo sapiens, read-out: IC50 on tumor cell proliferation, U937
Method: as §1

[6] = test system: K562 cells (human CML cell line expressing native Bcr-Abl); assay: Xenograft model of K562 in nude mice, oral dosing
Method: Tumor volume and body weight were monitored once every 2 days (In each group, the tumor volume and body weight at beginning of the day were recorded). Tumor volume was calculated as […]*a*b*b.L×W2/2 (a and b are the length and width of the tumor, respectively). […] The results were shown in Drawings as FIGS. 1, 2, 3, 4, 5, 6, 7 and 8.

[7] = Pharmacokinetics and bioavailability in rats; format: in vivo; settings: SD rats; corresponding pharmaceutical acceptable salt forms
Method: Pharmacokinetics and bioavailability in rats. […] The blood samples were collected at the proper time points after administration, add heparin-anticoagulant, and the supernatants of the blood samples were collected (3000 rpm, 10 min) and stored at -20° C. for HPLC-MS analysis. After protein-precipitation procedure with acetonitrile, supernatants were collected after 3000 rpm, 10 min for analysis with HPLC-MS. The data were analyzed with software DAS2.0 to separately acquire the parameters of compartment models and non-compartment models. The bioavailability was calculated according to AUC data.

[8] = Ba/F3 expressing BCR/ABL T315I, 72 h, Table 1, read-out: IC50 on tumor cell proliferation, BAF3-T315I cells
[9] = read-out: IC50 on tumor cell proliferation, BAF3-T315I cells, Ba/F3 expressing BCR/ABL T315I, 72 h, Table 1

| Compound | IC50 ([2]; MTT or CCK8, nM) [nM] | GI50 [4, 8] [nM] | IC50 ([5]; imatinib-resistant K562R) [nM] | IC50 [1] [nM] | IC50 (U937 Cell line; U-937, 72 h) [nM] | IC50 [2] [nM] | IC50 [3] [nM] | GI50 [4, 9] | IC50 [5] [nM] | IC50 ([1]; MTT or CCK8, nM) [nM] | IC50 (U937 Cell line; U-937, 72 h, MTT or CCK8, nM) [nM] | IC50 ([3]; MTT or CCK8, nM) [nM] | other results |
| --- | --- | --- | --- | --- | --- | --- | --- | --- | --- | --- | --- | --- | --- |
| Cc1ccc(C(=O)Nc2cc(-n3ccnc3)cc(C(F)(F)F)c2)cc1C#Cc1cnc(NC2CC2)nc1 [D729, N-(3-(1H-imidazol-1-yl)-5-(trifluoromethyl)phenyl)-3-(2-(2-(cyclopropylamino)pyrimidin-5-yl)ethynyl)-4-methylbenzamide] | 2.09 | 49.7 | 72.7 | – | – | – | – | – | – | – | – | – | IC50 ([1]; MTT or CCK8, no unit in cell): 6580 nM; IC50 ([3]; MTT or CCK8, no unit in cell): 5750 nM; GI50 ([4]; Ba/F3 carrying T315I Bcr-Abl, STI571-resistant, Table 2, read-out: IC50 on the cell proliferation of Ba/F3 (T315I)): < 100 nM |
| Cc1cn(-c2cc(NC(=O)c3ccc(C)c(C#Cc4cnc(N5CCCCC5)nc4)c3)cc(C(F)(F)F)c2)cn1 [D797, 4-methyl-N-(3-(4-methyl-1H-imidazol-1-yl)-5-(trifluoromethyl)phenyl)-3-(2-(2-(piperidin-1-yl)pyrimidin-5-yl)ethynyl)benzamide] | – | – | – | > 100 | > 100 | > 100 | > 10 | 13000 nM | 3370 | – | – | – | – |
| CNc1ncc(C#Cc2cc(C(=O)Nc3cc(-n4cnc(C)c4)cc(C(F)(F)F)c3)ccc2C)cn1 [D800 mesylate, 4-methyl-N-(3-(4-methyl-1H-imidazol-1-yl)-5-(trifluoromethyl)phenyl)-3-(2-(2-(methylamino)pyrimidin-5-yl)ethynyl)benzamide] | – | – | – | – | – | – | – | – | – | – | – | – | effect on tumor growth ([6]; 25 mg/kg po qd): completely inhibit the tumor growth; effect on body weight ([6]; po, qd): did not cause the body weight loss |
| Cc1ncn(-c2cc(NC(=O)c3ccc(C)c(C#Cc4cnc5ccnn5c4)c3)cc(C(F)(F)F)c2)n1 [D818, 4-methyl-N-(3-(3-methyl-1H-1,2,4-triazol-1-yl)-5-(trifluoromethyl)phenyl)-3-(2-(pyrazolo[1,5-a]pyrimidin-6-yl)ethynyl)benzamide] | 1.38 | 394 | 142 | – | – | – | – | – | – | 210 | > 100 | > 100 | – |
| Cc1ccc(C(=O)Nc2cc(-n3ccnc3)cc(C(F)(F)F)c2)cc1C#Cc1cnc2ccnn2c1 [D819, N-(3-(1H-imidazol-1-yl)-5-(trifluoromethyl)phenyl)-4-methyl-3-(2-(pyrazolo[1,5-a]pyrimidin-6-yl)ethynyl)benzamide] | 1.5 | 3120 | 146 | – | – | – | – | – | – | 122 | 2210 | 146 | – |
| Cc1ccc(C(=O)Nc2ccc(CN3CCN(C)CC3)c(C(F)(F)F)c2)cc1C#Cc1cnc2ccnn2c1 [D856, 4-methyl-N-(4-((4-methylpiperazin-1-yl)methyl)-3-(trifluoromethyl)phenyl)-3-(2-(pyrazolo[1,5-a]pyrimidin-6-yl)ethynyl)benzamide] | – | 10.8 | 67 | – | – | – | – | – | – | – | – | – | IC50 (U937 Cell line; U-937, 72 h, MTT or CCK8, no unit in cell): 2000 nM; IC50 ([2]; MTT or CCK8, no unit in cell): 2.24 nM; IC50 ([3]; MTT or CCK8, no unit in cell): 499 nM; pharmacokinetics parameters, overall judgement [7]: adequate pharmacokinetics parameters |

Now from value to compound, other results behind:

| IC50 ([2]; MTT or CCK8, nM) [nM] | GI50 [4, 8] [nM] | IC50 ([5]; imatinib-resistant K562R) [nM] | IC50 [1] [nM] | IC50 (U937 Cell line; U-937, 72 h) [nM] | IC50 [2] [nM] | IC50 [3] [nM] | GI50 [4, 9] | IC50 [5] [nM] | IC50 ([1]; MTT or CCK8, nM) [nM] | IC50 (U937 Cell line; U-937, 72 h, MTT or CCK8, nM) [nM] | IC50 ([3]; MTT or CCK8, nM) [nM] | Compound | other results |
| --- | --- | --- | --- | --- | --- | --- | --- | --- | --- | --- | --- | --- | --- |
| 34 | 1860 | 1220 | – | – | – | – | – | – | > 100 | > 100 | > 10 | Cc1cn(-c2cc(NC(=O)c3ccc(C)c(C#Cc4cnc5ncnn5c4)c3)cc(C(F)(F)F)c2)cn1 [D798, 3-(2-([1,2,4]-triazolo[1,5-a]pyrimidin-6-yl)ethynyl)-4-methyl-N-(3-(4-methyl-1H-imidazol-1-yl)-5-(trifluoromethyl)phenyl)benzamide] | – |
| 36.2 | > 10000 | 612 | – | – | – | – | – | – | > 100 | > 100 | > 100 | Cc1cn(-c2cc(NC(=O)c3ccc(C)c(C#Cc4cnc5nccn5c4)c3)cc(C(F)(F)F)c2)cn1 [D799, 3-(2-(imidazo[1,2-a]pyrimidin-6-yl)ethynyl)-4-methyl-N-(3-(4-methyl-1H-imidazol-1-yl)-5-(trifluoromethyl)phenyl)benzamide] | – |
| – | – | – | > 100 | > 100 | 1.1 | > 100 | 99.8 nM | 89.7 | – | – | – | CNc1ncc(C#Cc2cc(C(=O)Nc3cc(-n4cnc(C)c4)cc(C(F)(F)F)c3)ccc2C)cn1 [D800, 4-methyl-N-(3-(4-methyl-1H-imidazol-1-yl)-5-(trifluoromethyl)phenyl)-3-(2-(2-(methylamino)pyrimidin-5-yl)ethynyl)benzamide] | pharmacokinetics parameters, overall judgement [7]: adequate pharmacokinetics parameters |
| – | – | – | > 100 | 147 | 1.52 | 132 | 124 nM and 85.8 nM | 63.3 | – | – | – | Cc1cn(-c2cc(NC(=O)c3ccc(C)c(C#Cc4cnc(N)nc4)c3)cc(C(F)(F)F)c2)cn1 [D803, 3-(2-(2-aminopyrimidin-5-yl)ethynyl)-4-methyl-N-(3-(4-methyl-1H-imidazol-1-yl)-5-(trifluoromethyl)phenyl)benzamide] | – |
| – | – | – | 131 | 147 | > 100 | > 100 | 1890 nM | – | – | – | – | Cc1cn(-c2cc(NC(=O)c3ccc(C)c(C#Cc4cnc(NC(C)(C)C)nc4)c3)cc(C(F)(F)F)c2)cn1 [D806, 3-(2-(2-(tert-butylamino)pyrimidin-5-yl)ethynyl)-4-methyl-N-(3-(4-methyl-1H-imidazol-1-yl)-5-(trifluoromethyl)phenyl)benzamide] | – |
| 128 | 13400 | 14100 | – | – | – | – | – | – | > 100 | 126 | > 100 | CCN(CC)c1ncc(C#Cc2cc(C(=O)Nc3cc(-n4cnc(C)c4)cc(C(F)(F)F)c3)ccc2C)cn1 [D807, 3-(2-(2-(diethylamino)pyrimidin-5-yl)ethynyl)-4-methyl-N-(3-(4-methyl-1H-imidazol-1-yl)-5-(trifluoromethyl)phenyl)benzamide] | – |
| – | – | – | 115 | > 100 | > 100 | > 100 | 102 nM and 71.1 nM | 177 | – | – | – | Cc1cn(-c2cc(NC(=O)c3ccc(C)c(C#Cc4cnc(Nc5ccccc5)nc4)c3)cc(C(F)(F)F)c2)cn1 [D809, 4-methyl-N-(3-(4-methyl-1H-imidazol-1-yl)-5-(trifluoromethyl)phenyl)-3-(2-(2-(phenylamino)pyrimidin-5-yl)ethynyl)benzamide] | – |
| – | – | – | > 100 | > 100 | 1.37 | 134 | 276 nM | 35.2 | – | – | – | Cc1cn(-c2cc(NC(=O)c3ccc(C)c(C#Cc4cnc(NCCO)nc4)c3)cc(C(F)(F)F)c2)cn1 [D820, 3-(2-(2-(2-hydroxyethylamino)pyrimidin-5-yl)ethynyl)-4-methyl-N-(3-(4-methyl-1H-imidazol-1-yl)-5-(trifluoromethyl)phenyl)benzamide] | – |
